# Measurements from ChEMBL document CHEMBL5625252, “Synthesis of peptidomimetics as antibiotic adjuvants for combination with aztreonam to combat MDR Pseudomonas aeruginosa” (Eur J Med Chem, 2023).
# Activity calls are given as the source filed them. No cut-off for these calls is given here.
# Columns and labels:
# [1] = tested on: Pseudomonas aeruginosa; assay: Antibacterial activity against Pseudomonas aeruginosa 13-3 assessed as inhibition of bacterial growth incubated for 18 hrs by agar dilution method; format: functional
# [2] = tested on: Pseudomonas aeruginosa; assay: Antibacterial activity against Pseudomonas aeruginosa 19-46 assessed as inhibition of bacterial growth incubated for 18 hrs by agar dilution method; format: functional
# [3] = tested on: Pseudomonas aeruginosa; assay: Antibacterial activity against Pseudomonas aeruginosa 16-11 in CAMH broth medium supplemented with 0.41 to 0.51 mM Mg2+ by checkerboard assay; format: functional
# [4] = tested on: Pseudomonas aeruginosa; assay: Antibacterial activity against Pseudomonas aeruginosa 19-55 assessed as inhibition of bacterial growth incubated for 18 hrs by agar dilution method; format: functional
# [5] = tested on: Klebsiella pneumoniae; assay: Antibacterial activity against ESBLs (+) Klebsiella pneumoniae 16-14 assessed as inhibition of bacterial growth incubated for 18 hrs by agar dilution method; format: functional
# [6] = tested on: Pseudomonas aeruginosa; assay: Antibacterial activity against Pseudomonas aeruginosa 12-1 in CAMH broth medium supplemented with 20.99 to 21.09 mM Mg2+ by checkerboard assay; format: functional
# [7] = tested on: Klebsiella pneumoniae; assay: Antibacterial activity against NDM-1 (+) Klebsiella pneumoniae 09-20 assessed as inhibition of bacterial growth incubated for 18 hrs by agar dilution method; format: functional
# [8] = tested on: Pseudomonas aeruginosa; assay: Antibacterial activity against Pseudomonas aeruginosa 13-17 assessed as inhibition of bacterial growth incubated for 18 hrs by agar dilution method; format: functional
# [9] = tested on: Pseudomonas aeruginosa; assay: Antibacterial activity against Pseudomonas aeruginosa PAO1 at 2 ug/ml measured upto 24 hrs by time-kill assay; format: functional, organism-based; settings: dose 2.0 µg/ml
# [10] = tested on: Pseudomonas aeruginosa; assay: Antibacterial activity against Pseudomonas aeruginosa 23-Y511 assessed as inhibition of bacterial growth incubated for 18 hrs by agar dilution method; format: functional
# [11] = tested on: Pseudomonas aeruginosa; assay: Antibacterial activity against Pseudomonas aeruginosa 13-35 assessed as inhibition of bacterial growth incubated for 18 hrs by agar dilution method; format: functional
# [12] = tested on: Pseudomonas aeruginosa; assay: Antibacterial activity against Pseudomonas aeruginosa 16-11 assessed as inhibition of bacterial growth incubated for 18 hrs by agar dilution method; format: functional
# [13] = tested on: Pseudomonas aeruginosa; assay: Antibacterial activity against Pseudomonas aeruginosa PAO1 in CAMH broth medium supplemented with 20.99 to 21.09 mM Mg2+ by checkerboard assay; format: functional
# [14] = tested on: Pseudomonas aeruginosa; assay: Antibacterial activity against Pseudomonas aeruginosa 23-Y372 assessed as inhibition of bacterial growth incubated for 18 hrs by agar dilution method; format: functional
# [15] = tested on: Pseudomonas aeruginosa; assay: Antibacterial activity against Pseudomonas aeruginosa 21-2 assessed as inhibition of bacterial growth incubated for 18 hrs by agar dilution method; format: functional
# [16] = tested on: Pseudomonas aeruginosa; assay: Antibacterial activity against Pseudomonas aeruginosa 12-1 assessed as inhibition of bacterial growth incubated for 18 hrs by agar dilution method; format: functional
# [17] = tested on: Pseudomonas aeruginosa; assay: Antibacterial activity against Pseudomonas aeruginosa 13-35 in CAMH broth medium supplemented with 0.41 to 0.51 mM Mg2+ by checkerboard assay; format: functional
# [18] = tested on: Pseudomonas aeruginosa; assay: Antibacterial activity against Pseudomonas aeruginosa 16-11 in CAMH broth medium supplemented with 20.99 to 21.09 mM Mg2+ by checkerboard assay; format: functional
# [19] = tested on: Pseudomonas aeruginosa; assay: Antibacterial activity against Pseudomonas aeruginosa 16-2 at 16 ug/ml measured upto 24 hrs by time-kill assay; format: functional, organism-based; settings: dose 16.0 µg/ml
# [20] = tested on: Pseudomonas aeruginosa; assay: Antibacterial activity against Pseudomonas aeruginosa PAO1 assessed as inhibition of bacterial growth incubated for 18 hrs by agar dilution method; format: functional
# [21] = tested on: Pseudomonas aeruginosa; assay: Antibacterial activity against Pseudomonas aeruginosa PAO1 in CAMH broth medium supplemented with 0.41 to 0.51 mM Mg2+ by checkerboard assay; format: functional
# [22] = tested on: Pseudomonas aeruginosa; assay: Antibacterial activity against Pseudomonas aeruginosa 12-1 in CAMH broth medium supplemented with 0.41 to 0.51 mM Mg2+ by checkerboard assay; format: functional
# [23] = tested on: Pseudomonas aeruginosa; assay: Antibacterial activity against Pseudomonas aeruginosa 23-Y122 assessed as inhibition of bacterial growth incubated for 18 hrs by agar dilution method; format: functional
# [24] = tested on: Escherichia coli; assay: Antibacterial activity against ESBLs (-) Escherichia coli ATCC 25922 assessed as inhibition of bacterial growth incubated for 18 hrs by agar dilution method; format: functional
# [25] = tested on: Klebsiella pneumoniae; assay: Antibacterial activity against ESBLs (+) Klebsiella pneumoniae ATCC 700603 assessed as inhibition of bacterial growth incubated for 18 hrs by agar dilution method; format: functional
# [26] = tested on: Escherichia coli; assay: Antibacterial activity against ESBLs (+) Escherichia coli 16-1 assessed as inhibition of bacterial growth incubated for 18 hrs by agar dilution method; format: functional
# [27] = tested on: Pseudomonas aeruginosa; assay: Antibacterial activity against Pseudomonas aeruginosa 21-7 assessed as inhibition of bacterial growth incubated for 18 hrs by agar dilution method; format: functional
# [28] = tested on: Pseudomonas aeruginosa; assay: Antibacterial activity against Pseudomonas aeruginosa 13-35 in CAMH broth medium supplemented with 20.99 to 21.09 mM Mg2+ by checkerboard assay; format: functional
# [29] = tested on: Pseudomonas aeruginosa; assay: Antibacterial activity against Pseudomonas aeruginosa PAO1 infected in Galleria mellonella assessed as increase in larvae survival at 25 mg/kg measured every 12 hrs; format: functional, organism-based
# [30] = tested on: Pseudomonas aeruginosa; assay: Antibacterial activity against Pseudomonas aeruginosa 23-Y539 assessed as inhibition of bacterial growth incubated for 18 hrs by agar dilution method; format: functional
# [31] = tested on: Klebsiella pneumoniae; assay: Antibacterial activity against NDM-1 (+) Klebsiella pneumoniae 2146 assessed as inhibition of bacterial growth incubated for 18 hrs by agar dilution method; format: functional
# [32] = tested on: Pseudomonas aeruginosa; assay: Antibacterial activity against Pseudomonas aeruginosa 16-2 infected in Galleria mellonella assessed as larvae survival rate at 50 mg/kg after 96 hrs of innoculation; format: functional
# [33] = tested on: Pseudomonas aeruginosa; assay: Antibacterial activity against Pseudomonas aeruginosa 23-Y364 assessed as inhibition of bacterial growth incubated for 18 hrs by agar dilution method; format: functional
# [34] = tested on: Pseudomonas aeruginosa; assay: Antibacterial activity against BL (+) Pseudomonas aeruginosa ATCC 27853 assessed as inhibition of bacterial growth incubated for 18 hrs by agar dilution method; format: functional
# [35] = tested on: Escherichia coli; assay: Antibacterial activity against mcr-1 (+) Escherichia coli 08-85 assessed as inhibition of bacterial growth incubated for 18 hrs by agar dilution method; format: functional
# [36] = tested on: Escherichia coli; assay: Antibacterial activity against NDM-1 (+) Escherichia coli CDC 1001728 assessed as inhibition of bacterial growth incubated for 18 hrs by agar dilution method; format: functional
# [37] = tested on: Pseudomonas aeruginosa; assay: Antibacterial activity against Pseudomonas aeruginosa 21-8 assessed as inhibition of bacterial growth incubated for 18 hrs by agar dilution method; format: functional
# [38] = tested on: Pseudomonas aeruginosa; assay: Antibacterial activity against Pseudomonas aeruginosa 23-Y417 assessed as inhibition of bacterial growth incubated for 18 hrs by agar dilution method; format: functional; settings: read-out: MIC
# [39] = tested on: Pseudomonas aeruginosa; assay: Antibacterial activity against Pseudomonas aeruginosa 16-2 assessed as inhibition of bacterial growth incubated for 18 hrs by agar dilution method; format: functional
compound,measurement,setting,value
C[C@H]1[C@H](NC(=O)/C(=N\OC(C)(C)C(=O)O)c2csc(N)n2)C(=O)N1S(=O)(=O)O [AZTREONAM],MIC,[1],64 µg/mL
same,MIC,[2],128 µg/mL
same,MIC,[3],8 µg/mL
same,MIC,[4],128 µg/mL
same,MIC,[5],4 µg/mL
same,MIC,[6],64 µg/mL
same,MIC,[7],0.25 µg/mL
same,MIC,[8],64 µg/mL
same,Activity,[9],inactive
same,MIC,[10],32 µg/mL
same,MIC,[11],32 µg/mL
same,MIC,[12],8 µg/mL
same,MIC,[13],8 µg/mL
same,MIC,[14],32 µg/mL
same,MIC,[15],64 µg/mL
same,MIC,[16],64 µg/mL
same,MIC,[17],32 µg/mL
same,MIC,[18],8 µg/mL
same,Activity,[19],inactive
same,MIC,[20],8 µg/mL
same,MIC,[21],8 µg/mL
same,MIC,[22],64 µg/mL
same,MIC,[23],32 µg/mL
same,MIC,[24],0.06 µg/mL
same,MIC,[25],32 µg/mL
same,MIC,[26],≤ 0.03 µg/mL
same,MIC,[27],> 256 µg/mL
same,MIC,[28],32 µg/mL
same,Activity,[29],inactive
same,MIC,[30],64 µg/mL
same,MIC,[31],> 128 µg/mL
same,Activity,[32],30%
same,MIC,[33],> 256 µg/mL
same,MIC,[34],4 µg/mL
same,MIC,[35],4 µg/mL
same,MIC,[36],4 µg/mL
C[C@@H](O)[C@H]1C(=O)N2C(C(=O)O)=C(S[C@@H]3CN[C@H](C(=O)N(C)C)C3)[C@H](C)[C@H]12 [MEROPENEM],MIC,[1],32 µg/mL
same,MIC,[2],128 µg/mL
same,MIC,[37],0.5 µg/mL
same,MIC,[4],128 µg/mL
same,MIC,[8],32 µg/mL
same,MIC,[10],0.125 µg/mL
same,MIC,[38],16 µg/mL
same,MIC,[11],32 µg/mL
same,MIC,[12],1 µg/mL
same,MIC,[14],> 256 µg/mL
same,MIC,[15],16 µg/mL
same,MIC,[16],16 µg/mL
same,MIC,[20],2 µg/mL
same,MIC,[23],128 µg/mL
same,MIC,[27],16 µg/mL
same,MIC,[30],1 µg/mL
same,MIC,[33],2 µg/mL
same,MIC,[39],16 µg/mL
C[C@@H](O)[C@H]1C(=O)N2C(C(=O)O)=C(SCCNC=N)C[C@H]12 [IMIPENEM ANHYDROUS],MIC,[1],64 µg/mL
same,MIC,[2],32 µg/mL
same,MIC,[37],1 µg/mL
same,MIC,[4],32 µg/mL
same,MIC,[8],32 µg/mL
same,MIC,[10],0.5 µg/mL
same,MIC,[38],16 µg/mL
same,MIC,[11],32 µg/mL
same,MIC,[12],1 µg/mL
same,MIC,[14],128 µg/mL
same,MIC,[15],16 µg/mL
same,MIC,[16],64 µg/mL
same,MIC,[20],8 µg/mL
same,MIC,[23],4 µg/mL
same,MIC,[27],16 µg/mL
same,MIC,[30],8 µg/mL
same,MIC,[33],16 µg/mL
same,MIC,[39],32 µg/mL
